Assay results published in US20260174674A1, “INCOMPLETE AUTOPHAGY INDUCTION FOR THE TREATMENT OF CANCER” (Northwestern University, priority 2022, published 2026).

Key:
[1] = tested on: α-synuclein; conditions: cited from earlier work
[2] = cited from earlier work
[3] = tested on: brain metastases; conditions: added to whole-brain radiation, cited from earlier work
[4] = tested on: NDRG1 in MDA-MB-231Br; assay: NDRG1 and pNDRG1 expression; type: cell-based; conditions: dose-dependent treatment
Procedure: (§1) Upon further analysis of the RPPA data, the phosphorylation of N-Myc Downstream Regulated 1 (NDRG1) was noted to be relevant in four major pathways related to autophagy after 24 hours of metixene treatment. […] To confirm the role of NDRG1 in autophagy, NDRG1 knockout (KO) cells were generated using CRISPR Cas9 in MDA-MB-231Br cells. The cells were then treated with metixene in a dose-dependent manner and compared to cells transfected with a vector control.

[5] = tested on: BT-474Br intracranial tumors; assay: Stereotactic intracranial model of BCBM; type: in vivo, nude mice
Procedure: (§2) All animal studies were completed per the National Institutes of Health guidelines on the care and use of laboratory animals for research purposes. The Institutional Committee on Animal Use at Northwestern University approved the protocols. Six- to eight-week-old athymic, immunodeficient (nu/nu) female mice were obtained from Charles River and maintained in a specific pathogen-free facility. For mammary gland injections, 1×10^6 HCC1954 cells were injected in the inguinal mammary fat pad of nude female mice. For the stereotactic intracranial injection, mice were placed in a stereotactic frame, and 5×10^5 BT-474Br cells were intracranially injected at a depth of 3 mm. For intracarotid artery injections, 1×10^6 MDA-MB-231Br cells were injected using a 31-gauge BD insulin syringe into the lumen of internal carotid artery.
After showing its anti-tumor effect in vivo, whether metixene could improve survival in different preclinical models of brain metastases was tested. A stereotactic intracranial injection of HER2-positive BT474-Br cells was performed in nude mice. After 10 days of recovery and tumor growth, the mice were divided into two groups that were treated intraperitoneally: control (25% captisol, n=7); and metixene (1.0 mg/kg, n=8). The dosages were given three times per week.

[6] = tested on: MDA-MB-231-Br brain metastases; assay: Intracarotid model of multiple brain metastases; type: in vivo, nude mice; conditions: 1.0 mg/kg intraperitoneally three times per week, p=0.037
Procedure: as §2
The model was established through a systemic intracarotid injection of triple-negative MDA-MB-231-Br cells in nude mice. Ten days after injection of tumor cells, mice were randomly divided into two groups and treated intraperitoneally with: control (25% captisol, n=5) and metixene (1.0 mg/kg, n=6). The treatments were given three times per week.

[7] = tested on: BT-474 and BT-474Br and MDA-MB-231 and MDA-MB-231Br; assay: Autophagy induction with increasing concentration (LC3, SQSTM1/p62); type: cell-based
Procedure: (§3) The efficacy of metixene in inducing autophagy was tested in two primary breast and brain metastatic cancer cell lines, using BT-474 and BT-474Br and MDA-MB-231 and MDA-MB-231Br, respectively.

[8] = tested on: NDRG1 KO MDA-MB-231Br cells; assay: NDRG1 CRISPR Cas9 knockout versus vector control; type: cell-based
Procedure: as §1
(§4) The inventors then checked whether NDRG1 is further involved in the apoptotic cell death induced by metixene. A cell viability assay was conducted to check the effect of NDRG1 KO versus vector control upon metixene dose-dependent treatment. […] Upon NDRG1 KO, autophagy is completed, and the caspase-mediated pathway of apoptosis is not activated. This mechanism applies to primary brain cancers, such as glioblastoma (FIG. 4A), and other metastatic cancers to the brain, such as lung cancer (FIG. 4B) and melanoma (FIG. 4C).

[9] = tested on: HCC1954; assay: CNS drug screen, cell viability, trastuzumab-resistant line; type: cell-based; conditions: 25 μM
Procedure: (§5) The Prestwick CNS Drug Library of 320 CNS compounds was purchased from Prestwick Chemical Libraries for screening. Cells were seeded at a density of 5000 cells/well in clear, flatbottomed, black-walled, 96-well plates. Each compound from the library was added at a final concentration of 25 μM per well 1 day after seeding of cells. After three days of treatment, cell viability was measured using CellTiter-Glo® Luminescent Cell Viability Assay (Promega) according to the manufacturer's instructions.
HER2-positive breast cancer has the greatest risk for intracranial-specific metastases. When metastatic cancer cells colonize the brain, they develop resistance to systemic therapies, such as trastuzumab. For this reason, another blinded screen was conducted on a metastatic breast cancer cell line that is trastuzumab-resistant, HCC1954. At 25 μM, the screen yielded five hits that caused a nearly complete loss of cell viability. […] Next, the effect of metixene on different metastatic breast cancer cell lines was determined by measuring its IC50 in two HER2-positive cell lines (BT474 and HCC1954) and five triple-negative breast cancer cell lines (MDAMB-231-Br, HCC1806, HS578T, HCC3153, and SUM159) after 72 hours of treatment.

[10] = tested on: WM3734 melanoma brain metastatic cells; assay: Cell killing in melanoma brain metastatic cells; type: cell-based; conditions: increasing amount of metixene
Procedure: (§6) FIGS. 4A-4C. Metixene induces cell death in primary brain tumors and other metastatic cancers. (FIG. 4A) CT2A glioma cells were treated with increasing amount of metixene. […] (FIG. 4B) H2030Br lung cancer brain metastatic cells were treated with increasing amount of metixene. […] (FIG. 4C) WM3734 melanoma brain metastatic cells were treated with increasing amount of metixene.
as §4

[11] = tested on: MDA-MB-231Br; assay: Cell viability assay; type: cell-based
Procedure: (§7) Following the determination of an appropriate range for treatment of BCBM cells, the anti-cancer activity of metixene was evaluated in the brain metastatic HER2-positive BT-474Br and the triple-negative MDA-MB-231Br cell lines, using increasing concentrations of the drug at different time points.

[12] = tested on: BT-474Br; assay: Cell viability assay; type: cell-based
Procedure: as §7

[13] = tested on: caspase 3/7 activity in MDA-MB-231Br; assay: Caspase 3/7 assay; type: cell-based
[14] = tested on: cleaved caspase-3 in BT-474Br; assay: Cleaved caspase-3 protein expression; type: cell-based; conditions: 24 hours
Text: (§8) Next, whether metixene induces apoptotic cell death was investigated. […] Immunofluorescence analysis of metixene-treated BT-474Br and MDA-MB-231Br cells confirmed increased cleaved caspase-3 expression.

[15] = tested on: cleaved caspase-3 in MDA-MB-231Br; assay: Cleaved caspase-3 protein expression; type: cell-based; conditions: 24 hours
Text: as §8

[16] = tested on: BT-474Br, a HER2-positive BCBM cell line; assay: CNS drug screen, CellTiter-Glo cell viability; type: cell-based; conditions: 25 μM, 72 hours, Cell Titer Glo
Procedure: as §5
A blinded screen was conducted on a drug library comprising 320 structurally diverse drugs that are FDA approved, blood brain barrier (BBB) permeable, and known for their pharmacological effects on the CNS to identify potential hits for therapeutic intervention against brain metastases. Using BT-474Br, a HER2-positive BCBM cell line, the efficacy of the 320 compounds were screened at a standard concentration of 25 μM. After 72 hours of treatment, a cell viability assay was performed using Cell Titer Glo to determine the number of viable, metabolically active cells in culture. The screen yielded five different therapeutic agents that caused a vast reduction (>95%) in cell viability in vitro.

[17] = tested on: CT2A glioma cells; assay: Cell killing in glioma cells; type: cell-based; conditions: increasing amount of metixene
Procedure: as §6, §4

[18] = tested on: LC3 in MDA-MB-231-Br cells; assay: LC3 conversion and autophagy flux; type: cell-based; conditions: 10 μM, time course
Procedure: Next, MDA-MB-231-Br cells were treated with metixene for different durations to determine the mechanism of autophagic signaling in brain metastatic cells. […] Afterward, autophagy flux changes after ten minutes, one hour, and three hours of treatment were tested. LC3 II levels in control (untreated) cells, cells treated with chloroquine (25 μM), cells treated with metixene (10 μM), and cells treated with metixene and chloroquine were compared.

[19] = tested on: H2030Br lung cancer brain metastatic cells; assay: Cell killing in lung cancer brain metastatic cells; type: cell-based; conditions: increasing amount of metixene
Procedure: as §6, §4

[20] = tested on: caspase 3/7 activity in BT-474Br; assay: Caspase 3/7 assay; type: cell-based
[21] = tested on: LC3 in BT-474Br cells; assay: LC3 puncta immunofluorescence; type: cell-based; conditions: 10 μM; P=0.015
Procedure: as §3

[22] = tested on: HCC1954 mammary fat pad tumors; assay: Mammary fat pad tumor model; type: in vivo, nude mice
Procedure: as §2
The efficacy of metixene hydrochloride was evaluated using an in vivo model. HCC1954 cells were injected into the mammary fat pads of nude mice. After the formation and establishment of 5 mm breast tumors, mice were randomly divided into three groups whereby treatment was administered intraperitoneally: control (25% captisol); metixene (0.1 mg/kg); and metixene (1.0 mg/kg). The dosages were given three times a week. After 6 weeks, fat pad tumors were collected and analyzed (FIG. 2A).

[23] = dose-dependent treatment, Western blot

SMILES: C=CCNC1=C2C[C@@H](C)C[C@H](OC)[C@H](O)[C@@H](C)/C=C(\C)[C@H](OC(N)=O)[C@@H](OC)/C=C\C=C(/C)C(=O)NC(=CC1=O)C2=O [17-AAG]
- reduction of α-synuclein in cells [1]: effective in reducing α-synuclein in cells

SMILES: CCN(CC)CCCC(C)Nc1ccnc2cc(Cl)ccc12 (stereo not drawn) [chloroquine]
- BBB permeability [2]: low permeability of the BBB
- toxicity ([3]; vs controls): no increase in toxicity
- overall survival ([3]; controls 7.42 months, P=0.839): 10.2 months

SMILES: CN1CCCC(CC2c3ccccc3Sc3ccccc32)C1 (stereo not drawn) [metixene]
- expression of NDRG1 and pNDRG1 [4]: increased significantly in a dose-dependent manner
- median survival ([5]; 1.0 mg/kg intraperitoneally three times per week, control 52 days, p=0.0008): 64 days
- luciferase signal in the brain ([5]; 1.0 mg/kg, after six weeks of treatment, vs controls, p=0.02): significant reduction
- median survival ([6]; control 44 days): 67 days
- increase in survival in comparison to controls [6]: 52%
- LC3 II levels ([7]; increasing concentration): increased as the concentration of metixene increased
- ratio of LC3 II to I levels ([7]; increasing concentration): trended upwards with increasing concentration
- SQSTM1/p62 levels ([7]; increasing concentration (FIG. 3F)): increased with increasing concentration
- apoptosis (caspase 3/7) in NDRG1 KO cells vs control ([8]; 10 μM (P=0.0078) and 15 μM (P<0.0001)): significantly reduced
- viability of NDRG1 KO cells vs control cells ([8]; 10 μM (P=0.0271) and 20 μM (P<0.0001)): significantly more viable
- LC3II levels in NDRG1 KO cells vs vector control [8, 23]: decreased significantly
- p62 levels in NDRG1 KO cells vs vector control [8, 23]: significant decrease
- loss of cell viability [9]: top hit in both screens
- concentration at which potent cell-killing effect begins [10]: 10 µM
- cell viability ([11]; 24 hours): significant reduction in cell viability
- cell viability ([11]; 48 hours, 5, 10, and 15 μM): significantly decreased
- cell viability ([12]; 24 hours): significant reduction in cell viability
- cell viability ([12]; 48 hours, 15 μM): significantly decreased
- caspase 3/7 activity ([13]; 24 hours, 10 μM and 15 μM): significant increase in caspase 3/7 activity
- caspase 3/7 activity ([13]; 48 hours, 15 μM): increased significantly
- cleaved caspase-3 protein levels [14]: markedly increase
- cleaved caspase-3 protein levels [15]: markedly increase
- reduction in cell viability [16]: top hit in both screens
- concentration at which potent cell-killing effect begins [17]: 5 µM
- conversion of LC3 I to LC3 II [18]: increase as early as ten minutes
- BBB permeability [2]: BBB permeable
- concentration at which potent cell-killing effect begins [19]: 10 µM
- caspase 3/7 activity ([20]; 24 hours): significant increase in caspase 3/7 activity
- caspase 3/7 activity ([20]; 48 hours, 15 μM): increased significantly
- LC3 puncta accumulation [21]: significant increase in the accumulation of puncta
- tumor weight ([22]; 0.1 mg/kg intraperitoneally three times a week, 6 weeks, P=0.0043): decreased significantly
- percent of cleaved caspase-3-positive cells in tumor sections ([22]; 0.1 mg/kg, p=0.001): significant increase
- tumor weight ([22]; 1.0 mg/kg intraperitoneally three times a week, 6 weeks, P=0.0004): decreased significantly
- percent of cleaved caspase-3-positive cells in tumor sections ([22]; 1.0 mg/kg, p=0.0002): significant increase
- tumor volume ([22]; 0.1 and 1.0 mg/kg intraperitoneally three times a week, 6 weeks, p<0.0001): decreased significantly
